≈ marks a conversion by molar mass, not a printed value. Entries after “also recorded” stand apart in the source; their conditions may differ.
Tests used:
[1] = Fraction bound to plasma protein in mice; format: in vitro ADME; conditions: mouse, read-out: Fraction bound to plasma protein (fp) (converted)
female rabbits = assay: Local tolerance after single intravenous infusion into the marginal ear vein; format: in vivo, rabbit
Method: The aim of this example was to test the local tolerance of a compound (I) containing aqueous injectable solution in accordance with the invention in female rabbits following a single intravenous infusion for 30 or 60 minutes. Each animal received 15 mL of a formulation containing 5 mg compound (I) as API per mL into the marginal vein of the right ear. Two groups of 9 female animals, each, were employed with infusion durations of 30 or 60 minutes per dose. In addition, a placebo solution as vehicle control, was administered in the same volume and duration on the left ear of each animal. 24, 72 and 96 hours after administration respectively 3 animals per group were sacrificed and the injection sites were examined macro- and microscopically. The application formulations were freshly prepared on the administration day. The compound (I) and the placebo were dissolved in the vehicles to the appropriate concentrations: 15 mL of WFI were added to 1 compound (I) drug product vial and shaken well. The solution volume expanded to approximately 17 mL. The final concentration was approximately 29 mg/mL. Withdraw 17 mL from 100 mL of lactated Ringer's solution. Then add the reconstituted solution (approx. 17 mL from step 1). Mix well. The final concentration was approximately […]. Species: rabbit; Strain: New Zealand White Selection of species: the rabbit is a commonly used species for local tolerance studies. Number and sex of animals: 18 female animals Age (at start of administration): approx. 3 months Body weight (at start of administration): 2.31 to 2.73 kg Acclimatisation period: at least 20 acclimatisation days; 4 test days Routes of administration: single intravenous infusion into the marginal vein of the ear. Selection of routes of administration: according to clinical use via intravenous route. The compound (I) solutions were administered to the right ear, and the placebo solutions were administered to the left ear of each animal. Local reactions were inspected macroscopically 1 […] and 96 h after injection. The reactions were scored on the basis of DRAIZE, Appraisal of the Safety of Chemicals in Food, Drugs and Cosmetics, Association of Food and Drug Officials of the United States, Austin, Tex., 1959. The animals scheduled for the respective dissection day were sacrificed with pentobarbitol injection into an ear vein (not used for infusion). All animals were subjected to gross examination including the opening of the cranial, thoracic and abdominal cavities and the examination of the major organs. Particular attention was paid to the appropriate injection sites (test and control items). All abnormalities were recorded. Tissue abnormalities would have been preserved in 10% neutral buffered formalin. Histopathological examination was performed on treated infusion sites (compound (I) and placebo, 2 sites per animal) plus an untreated adjacent site from all animals. Tissue samples were fixed in 10% buffered formalin. Paraffin sections (3 to 5 μm) were prepared, stained with hematoxylin-eosin, and examined histologically.

[2] = Physical / in-use stability of solutions at room temperature; format: physicochemical
[3] = Solubility of compound (I) in selected solvent systems by UPLC; format: physicochemical; conditions: aqueous with cosolvent or surfactant or cyclodextrin, thermodynamic from solid, 25° C.
Method: To determine the solubility of a compound (I) in selected solvent systems in accordance with the invention, UPLC was used, and physicochemical properties such as pH and physical appearance were monitored. The solubility of compound (I) in solution was determined at 25° C. separately in following solvent systems at three time points (at 2 hours, at 6 hours and at 24 hours) in duplicates. 1) Hydroxypropyl-β-cyclodextrin solution (30% w/v) 2) Hydroxypropyl-β-cyclodextrin (30% w/v) solution containing 2% CA 3) Solvent mixture of PEG400 (40%)+2% CA (60%) To the vial for each time point 3 mL of individual solvent were added followed by addition of the weighed amount of compound (I) (100 mg). This system was kept for stirring on a magnetic stirrer at 700 rpm. At each time point, the solution was filtered through a […] syringe filter and analysed for the content of compound (I) using UPLC after suitable dilutions.

[4] = pH-dependent solubility of compound (I); format: physicochemical; conditions: 25 °C
Method: The solubility profile of the API of a compound of formula (I) was measured at two different pH values (see […]): FIG. 23: pH solubility profile in pure water at 25° C.

[5] = Calculated fraction of compound (I) bound to SBE-β-CD in blood plasma after i.v. administration; set-up: species or system mice; conditions: after i.v. administration at time zero
Method: On average, mice have 79 ml of blood per kg of body weight (see https://en.wikipedia.org/wiki/Blood_volume; Oct. 3, 2016). If the blood plasma is 55% of the total blood volume then mice have around 43 ml of plasma per kg of body weight. The dose was 25 mg/kg (0.037 mmoles/kg) of compound (I) and 156.5 mg/kg ([…]) of SBE-β-CD. After mixing with the blood plasma the initial plasma concentration should be 8.6.10^−4 M of compound (I) and 1.7.10^−3 M of SBE-β-CD.

Compound: CC1(C)[C@H](NC(=O)/C(=N\O[C@@H](COc2ccc(C(=N)N[C@@H]3CCCNC3)cc2)C(=O)O)c2csc(N)n2)C(=O)N1OS(=O)(=O)O [compound (I)]
- fraction unbound [1]: 0.779
- Body weight (female rabbits; 15 mL of 5 mg/mL i.v. infusion): No influence on the body weight
- Clinical signs (female rabbits; 15 mL of 5 mg/mL i.v. infusion): No clinical signs of toxicity
- Necropsy findings (female rabbits; 15 mL of 5 mg/mL i.v. infusion, 30 or 60 min): did not reveal any changes
- Macroscopic changes at infusion sites (female rabbits; 15 mL of 5 mg/mL i.v. infusion, 30 or 60 min, inspected 1 h to 96 h): did not reveal any changes
- Microscopic (histopathological) changes at infusion sites (female rabbits; 15 mL of 5 mg/mL i.v. infusion, 30 or 60 min, versus vehicle control sites): did not reveal any compound (I)-related changes; also recorded: did not cause any compound (I)-related histopathological changes
- Compatibility following intravenous infusion (female rabbits; overall conclusion): very good compatibility
- Stability after reconstitution [2]: 6 h
- solubility ([3]; 30% HP-β-CD plus 2% CA): 16200 µg/mL
- solubility ([3]; hydroxypropyl-β-cyclodextrin solution (30% w/v), 30% HP-β-CD as sole excipient): 2700 µg/mL (≈ 4.04 mM)
- solubility ([4]; pure water (pH-adjusted, no cyclodextrin), pH 7.4, aqueous buffer): 1000 µg/mL (≈ 1.5 mM)
- solubility ([4]; pure water, aqueous buffer, pH 4.0): 10000 µg/mL (≈ 15 mM)
- Fraction of compound (I) free or bound to plasma proteins [5]: about 80%
- Fraction of compound (I) bound to SBE-β-CD ([5]; 25 mg/kg with 156.5 mg/kg SBE-β-CD, plasma pH 7.4): about 22%
